Reference: US20140045806A1 (priority 2012, published 2014)
Where two headings read alike, the source gives them in different places. Marks after values point to notes of the source that are not given here.

Tests used:
vaginal nerve fibers = conditions: rat, lamina propria and muscularis, cited from earlier work
postmenopausal women = assay: ERC-210 phase III trial, MENQOL questionnaire (sexual domain and summary score); type: in vivo; conditions: for MENQOL sexual domain, average percentage of change from baseline, percentages of the three DHEA doses combined: 12 weeks; for MENQOL Avoiding intimacy, average % change from baseline to Week 12 in severity score over placebo / MENQOL Sexual desire, average % change from baseline to Week 12 in severity score over placebo / MENQOL Vaginal dryness at sexual activity, average % change from baseline to Week 12 in severity score over placebo: average of the 3 DHEA doses
Excerpt: The example below is intended only to illustrate a particular embodiment of the present invention and is not meant to limit the scope of the invention in any manner. This study (ERC-210) is a phase III, prospective, multicentre, randomized, placebo-controlled, and double-blind trial. […] The DHEA ovules or suppositories (Vaginorm™) containing prasterone in a lipophilic base were manufactured by Recipharm, Karlskoga, Sweden. The study was divided into two phases, namely screening followed by a treatment period of 12 weeks. The protocol was approved by the Institutional Review Board of the Centre Hospitalier de I'Université Laval (Quebec City, Canada), McGill University (Montreal, Canada), Ethica (Montreal, Canada), Eastern Virginia Medical School (Norfolk, Va., USA) and the Western Institutional Review Board (Los Angeles, USA).
The inclusion and exclusion criteria were as described in (Labrie, Archer et al. 2009b). A written informed consent was obtained from all subjects prior to the performance of any study-related procedure. […] A partial gynecological examination was performed to evaluate the aspect of the mucosa and tolerance to the medication on day 1 and at all visits. The standard laboratory tests, namely hematology (including complete blood count and coagulation), blood chemistry and urinalysis were performed at screening, day 1 and at all visits. Summary tabulations were prepared displaying the number of observations, mean or geometric mean as appropriate, SD; SEM, 95% two-sided CI; median, minimum, and maximum for continuous variables; and the number and percentage per category for categorical data. Statistical analyses were performed at the two-sided significance level of 0.05 unless otherwise stated. […] The endpoints for analysis consisted of the following: desire/interest, arousal and orgasm were self-rated by the women at screening, at day 1, and at week 4, 8 and 12 using the ASF and MENQOL questionnaires. Baseline was defined as the value on day 1, obtained before first use of the study treatment, and change from baseline to week 12 was calculated for each participant for each domain endpoint. The analysis comparing each dose of DHEA to placebo was performed by analysis of covariance, with the baseline value used as the covariate. Missing values were replaced by the last observation made.
The three questions covered by the sexual domain of the MENQOL questionnaire are change in sexual desire, intimacy avoidance and vaginal dryness during sexual activity. In our previous publication (Labrie, Archer et al. 2009a), only women having a score value at baseline and week 12 were used in the calculations while the present evaluation carries forward the last value obtained after baseline when data at week 12 are missing. […] Since the number of women is as low as 12 in some groups for some parameters after the distribution is made between women with and without MS, the calculations have also been performed with the combination of the three prasterone doses, although the number of women remains low in the corresponding placebo group.

[1] = 0.25% DHEA intravaginal daily 12 weeks, MS pain at sexual activity at baseline
[2] = 0.5% DHEA intravaginal daily 12 weeks, MS pain at sexual activity at baseline
[3] = 0.5% DHEA intravaginal daily 12 weeks, all subjects (ITT)
[4] = 1.0% DHEA intravaginal daily 12 weeks, no MS pain at sexual activity at baseline
[5] = Pool 3 Doses DHEA intravaginal daily 12 weeks, MS pain at sexual activity at baseline
[6] = Pool 3 Doses DHEA intravaginal daily 12 weeks, MS pain at sexual activity at baseline, listed as prasterone
[7] = Pool 3 Doses DHEA intravaginal daily 12 weeks, all subjects (ITT)
[8] = Pool 3 Doses DHEA intravaginal daily 12 weeks, all subjects (ITT), listed as prasterone
[9] = Pool 3 Doses DHEA intravaginal daily 12 weeks, no MS pain at sexual activity at baseline
[10] = Pool 3 Doses DHEA intravaginal daily 12 weeks, no MS pain at sexual activity at baseline, listed as prasterone

C[C@]12CC[C@H](O)CC1=CC[C@@H]1[C@@H]2CC[C@]2(C)C(=O)CC[C@@H]12 [DHEA, (3β)-3-Hydroxyandrost-5-en-17-one]
Density of vaginal nerve fibers (vaginal nerve fibers): increases the density of nerve fibers | Density of vaginal nerve fibers (vaginal nerve fibers; listed as prasterone): stimulatory effect | MENQOL Avoiding intimacy (Q 29) severity score, average % change from baseline to Week 12 (decreased from baseline) (postmenopausal women; [1]): 41% | MENQOL SUMMARY SCORE of the four domains, average % change from baseline to Week 12 (decreased from baseline) (postmenopausal women; [1]): 24%** | MENQOL Sexual desire (Q 27) severity score, average % change from baseline to Week 12 (decreased from baseline) (postmenopausal women; [1]): 48% | MENQOL Vaginal dryness during intercourse (Q28) severity score, average % change from baseline to Week 12 (decreased from baseline) (postmenopausal women; [1]): 45% | MENQOL SUMMARY SCORE of the four domains, average % change from baseline to Week 12 (decreased from baseline) (postmenopausal women; 0.25% DHEA intravaginal daily 12 weeks, all subjects (ITT)): 24%** | MENQOL SUMMARY SCORE of the four domains, average % change from baseline to Week 12 (decreased from baseline) (postmenopausal women; 0.25% DHEA intravaginal daily 12 weeks, no MS pain at sexual activity at baseline): 25%* | MENQOL Avoiding intimacy (Q 29) severity score, average % change from baseline to Week 12 (decreased from baseline) (postmenopausal women; [2]): 43% | MENQOL SUMMARY SCORE of the four domains, average % change from baseline to Week 12 (decreased from baseline) (postmenopausal women; [2]): 19% | MENQOL Sexual desire (Q 27) severity score, average % change from baseline to Week 12 (decreased from baseline) (postmenopausal women; [2]): 36% | MENQOL SUMMARY SCORE of the four domains, average % change from baseline to Week 12 (decreased from baseline) (postmenopausal women; [3]): 18% | MENQOL Sexual desire (Q 27) severity score, average % change from baseline to Week 12 (decreased from baseline) (postmenopausal women; [3]): 31% | MENQOL SUMMARY SCORE of the four domains, average % change from baseline to Week 12 (decreased from baseline) (postmenopausal women; 0.5% DHEA intravaginal daily 12 weeks, no MS pain at sexual activity at baseline): 12% | MENQOL SUMMARY SCORE of the four domains, average % change from baseline to Week 12 (decreased from baseline) (postmenopausal women; 1.0% DHEA intravaginal daily 12 weeks, MS pain at sexual activity at baseline): 22%* | MENQOL SUMMARY SCORE of the four domains, average % change from baseline to Week 12 (decreased from baseline) (postmenopausal women; 1.0% DHEA intravaginal daily 12 weeks, all subjects (ITT)): 20%* | MENQOL Avoiding intimacy (Q 29) severity score, average % change from baseline to Week 12 (decreased from baseline) (postmenopausal women; [4]): 27% | MENQOL SUMMARY SCORE of the four domains, average % change from baseline to Week 12 (decreased from baseline) (postmenopausal women; [4]): 14% | MENQOL Sexual desire (Q 27) severity score, average % change from baseline to Week 12 (decreased from baseline) (postmenopausal women; [4]): 35% | Changes over placebo, sum of the three questions of the MENQOL sexual function domain (postmenopausal women; MS pain group): 62.8% | Specific (above placebo) effect in MENQOL, global increase over placebo (postmenopausal women; MS pain group): 0.78 fold | MENQOL sexual domain, average percentage of change from baseline, percentages of the three DHEA doses combined (postmenopausal women; MS pain group): 49.0% | MENQOL Avoiding intimacy (Q 29) severity score, average % change from baseline to Week 12 (decreased from baseline) (postmenopausal women; [5]): 46.4%* | MENQOL SUMMARY SCORE of the four domains, average % change from baseline to Week 12 (decreased from baseline) (postmenopausal women; [5]): 21.4%* | MENQOL Sexual desire (Q 27) severity score, average % change from baseline to Week 12 (decreased from baseline) (postmenopausal women; [5]): 45.0% | MENQOL Sexual domain severity score, average % change from baseline to Week 12 (decreased from baseline) (postmenopausal women; [5]): 48.4%** | MENQOL Vaginal dryness during intercourse (Q28) severity score, average % change from baseline to Week 12 (decreased from baseline) (postmenopausal women; [5]): 52.4%** | MENQOL Avoiding intimacy (Q 29) severity score, average % change from baseline to Week 12 (decreased from baseline) (postmenopausal women; [6]): 46.4% | MENQOL SUMMARY SCORE of the four domains, average % change from baseline to Week 12 (decreased from baseline) (postmenopausal women; [6]): 21.4% | MENQOL Sexual desire (Q 27) severity score, average % change from baseline to Week 12 (decreased from baseline) (postmenopausal women; [6]): 45% | MENQOL Sexual domain severity score, average % change from baseline to Week 12 (decreased from baseline) (postmenopausal women; [6]): 48.4% | MENQOL Vaginal dryness during intercourse (Q28) severity score, average % change from baseline to Week 12 (decreased from baseline) (postmenopausal women; [6]): 52.4% | MENQOL Avoiding intimacy (Q 29) severity score, average % change from baseline to Week 12 (decreased from baseline) (postmenopausal women; [7]): 44.8%** | MENQOL SUMMARY SCORE of the four domains, average % change from baseline to Week 12 (decreased from baseline) (postmenopausal women; [7]): 20.8%** | MENQOL Sexual desire (Q 27) severity score, average % change from baseline to Week 12 (decreased from baseline) (postmenopausal women; [7]): 44.0%** | MENQOL Sexual domain severity score, average % change from baseline to Week 12 (decreased from baseline) (postmenopausal women; [7]): 46.7%** | MENQOL Vaginal dryness during intercourse (Q28) severity score, average % change from baseline to Week 12 (decreased from baseline) (postmenopausal women; [7]): 49.9%** | MENQOL Avoiding intimacy (Q 29) severity score, average % change from baseline to Week 12 (decreased from baseline) (postmenopausal women; [8]): 44.8% | MENQOL SUMMARY SCORE of the four domains, average % change from baseline to Week 12 (decreased from baseline) (postmenopausal women; [8]): 20.8% | MENQOL Sexual desire (Q 27) severity score, average % change from baseline to Week 12 (decreased from baseline) (postmenopausal women; [8]): 44% | MENQOL Sexual domain severity score, average % change from baseline to Week 12 (decreased from baseline) (postmenopausal women; [8]): 46.7% | MENQOL Vaginal dryness during intercourse (Q28) severity score, average % change from baseline to Week 12 (decreased from baseline) (postmenopausal women; [8]): 49.9% | MENQOL Avoiding intimacy (Q 29) severity score, average % change from baseline to Week 12 (decreased from baseline) (postmenopausal women; [9]): 36.6%* | MENQOL SUMMARY SCORE of the four domains, average % change from baseline to Week 12 (decreased from baseline) (postmenopausal women; [9]): 18.0%* | MENQOL Sexual desire (Q 27) severity score, average % change from baseline to Week 12 (decreased from baseline) (postmenopausal women; [9]): 40.2%** | MENQOL Sexual domain severity score, average % change from baseline to Week 12 (decreased from baseline) (postmenopausal women; [9]): 39.2%** | MENQOL Vaginal dryness during intercourse (Q28) severity score, average % change from baseline to Week 12 (decreased from baseline) (postmenopausal women; [9]): 38.2%** | MENQOL Avoiding intimacy (Q 29) severity score, average % change from baseline to Week 12 (decreased from baseline) (postmenopausal women; [10]): 36.6% | MENQOL SUMMARY SCORE of the four domains, average % change from baseline to Week 12 (decreased from baseline) (postmenopausal women; [10]): 18% | MENQOL Sexual desire (Q 27) severity score, average % change from baseline to Week 12 (decreased from baseline) (postmenopausal women; [10]): 40.2% | MENQOL Sexual domain severity score, average % change from baseline to Week 12 (decreased from baseline) (postmenopausal women; [10]): 39.2% | MENQOL Vaginal dryness during intercourse (Q28) severity score, average % change from baseline to Week 12 (decreased from baseline) (postmenopausal women; [10]): 38.2% | MENQOL Avoiding intimacy, average % change from baseline to Week 12 in severity score over placebo (postmenopausal women; MS PAIN at baseline): 21.4%* | MENQOL Sexual desire, average % change from baseline to Week 12 in severity score over placebo (postmenopausal women; MS PAIN at baseline): 18.0% | MENQOL Vaginal dryness at sexual activity, average % change from baseline to Week 12 in severity score over placebo (postmenopausal women; MS PAIN at baseline): 23.4%** | MENQOL Avoiding intimacy, average % change from baseline to Week 12 in severity score over placebo (postmenopausal women; NO MS PAIN at baseline): 27.4%* | MENQOL Sexual desire, average % change from baseline to Week 12 in severity score over placebo (postmenopausal women; NO MS PAIN at baseline): 34.1%** | MENQOL Vaginal dryness at sexual activity, average % change from baseline to Week 12 in severity score over placebo (postmenopausal women; NO MS PAIN at baseline): 38.2%** | MENQOL Avoiding intimacy, average % change from baseline to Week 12 in severity score over placebo (postmenopausal women; TOTAL (all women)): 22.8%** | MENQOL Sexual desire, average % change from baseline to Week 12 in severity score over placebo (postmenopausal women; TOTAL (all women)): 22.0%** | MENQOL Vaginal dryness at sexual activity, average % change from baseline to Week 12 in severity score over placebo (postmenopausal women; TOTAL (all women)): 26.9%** | Changes over placebo, sum of the three questions of the MENQOL sexual function domain (postmenopausal women; no MS pain group): 99.7% | Specific (above placebo) effect in MENQOL, global increase over placebo (postmenopausal women; non MS pain group): 5.5 fold | MENQOL sexual domain, average percentage of change from baseline, percentages of the three DHEA doses combined (postmenopausal women; non MS pain group): 33.3% | Higher specificity of correction of sexual dysfunction (over placebo), MENQOL (postmenopausal women; women with no MS pain versus MS pain at baseline): 6.8 fold
